Experimental data: ChEMBL document CHEMBL4265899, “Trisubstituted thiazoles as potent and selective inhibitors of Plasmodium falciparum protein kinase G (PfPKG)” (Bioorg Med Chem Lett, 2018)
pEC50: −log10 of the molar value. In brackets after ≈: the same amount, converted by molar mass.

Legend:
[1] = biological target: Maternal embryonic leucine zipper kinase (Homo sapiens) (UniProt Q14680); experiment: Inhibition of human MELK at 100 nM
[2] = biological target: Serine/threonine-protein kinase STK11 (Homo sapiens) (UniProt Q15831); experiment: Inhibition of human LKB1 at 100 nM
[3] = biological target: RAC-alpha serine/threonine-protein kinase (Homo sapiens) (UniProt P31749); experiment: Inhibition of human PKBalpha at 100 nM
[4] = biological target: Serine/threonine-protein kinase TBK1 (Homo sapiens) (UniProt Q9UHD2); experiment: Inhibition of human TBK1 at 100 nM
[5] = biological target: Homeodomain-interacting protein kinase 2 (Homo sapiens) (UniProt Q9H2X6); experiment: Inhibition of human HIPK2 at 100 nM
[6] = biological target: Insulin receptor (Homo sapiens) (UniProt P06213); experiment: Inhibition of human IR at 100 nM
[7] = biological target: Receptor tyrosine-protein kinase erbB-4 (Homo sapiens) (UniProt Q15303); experiment: Inhibition of human HER4 at 100 nM
Sequence of Receptor tyrosine-protein kinase erbB-4 (Homo sapiens) (Q15303 whole entry): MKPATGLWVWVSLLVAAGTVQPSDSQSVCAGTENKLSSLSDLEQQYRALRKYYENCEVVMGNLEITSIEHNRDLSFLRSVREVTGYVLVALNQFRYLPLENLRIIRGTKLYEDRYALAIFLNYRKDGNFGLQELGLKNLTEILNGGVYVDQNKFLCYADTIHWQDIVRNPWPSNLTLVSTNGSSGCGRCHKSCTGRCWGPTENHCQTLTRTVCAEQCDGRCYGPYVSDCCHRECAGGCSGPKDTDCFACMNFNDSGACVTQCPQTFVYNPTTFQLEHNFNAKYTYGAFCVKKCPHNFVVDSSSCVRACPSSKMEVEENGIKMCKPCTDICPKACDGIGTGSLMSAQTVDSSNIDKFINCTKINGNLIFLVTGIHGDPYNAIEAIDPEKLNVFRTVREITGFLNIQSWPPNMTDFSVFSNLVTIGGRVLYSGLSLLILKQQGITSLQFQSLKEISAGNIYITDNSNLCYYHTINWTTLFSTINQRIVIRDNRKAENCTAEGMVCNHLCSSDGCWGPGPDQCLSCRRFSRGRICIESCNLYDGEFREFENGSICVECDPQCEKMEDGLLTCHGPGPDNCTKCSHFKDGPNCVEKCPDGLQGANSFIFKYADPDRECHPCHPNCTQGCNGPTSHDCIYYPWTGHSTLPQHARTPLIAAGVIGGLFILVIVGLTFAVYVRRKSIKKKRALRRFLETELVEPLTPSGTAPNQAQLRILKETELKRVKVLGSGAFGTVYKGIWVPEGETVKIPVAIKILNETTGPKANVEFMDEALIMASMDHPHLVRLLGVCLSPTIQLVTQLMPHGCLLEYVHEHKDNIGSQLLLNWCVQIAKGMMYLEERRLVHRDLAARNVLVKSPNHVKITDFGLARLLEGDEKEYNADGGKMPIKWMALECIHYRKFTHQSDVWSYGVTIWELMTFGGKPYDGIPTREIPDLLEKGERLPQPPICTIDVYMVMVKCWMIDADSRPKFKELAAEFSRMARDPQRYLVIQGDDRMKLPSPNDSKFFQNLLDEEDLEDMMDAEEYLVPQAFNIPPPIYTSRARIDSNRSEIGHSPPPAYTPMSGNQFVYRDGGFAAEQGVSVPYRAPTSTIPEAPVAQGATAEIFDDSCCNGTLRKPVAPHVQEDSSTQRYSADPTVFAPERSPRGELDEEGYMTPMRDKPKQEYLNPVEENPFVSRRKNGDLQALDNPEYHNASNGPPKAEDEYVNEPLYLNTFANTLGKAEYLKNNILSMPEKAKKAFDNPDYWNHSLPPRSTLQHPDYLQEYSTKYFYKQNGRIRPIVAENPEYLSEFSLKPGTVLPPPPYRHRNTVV

[8] = biological target: Mitogen-activated protein kinase kinase kinase 7 (Homo sapiens) (UniProt O43318); experiment: Inhibition of human TAK1 at 100 nM
Sequence of Mitogen-activated protein kinase kinase kinase 7 (Homo sapiens) (O43318 whole entry): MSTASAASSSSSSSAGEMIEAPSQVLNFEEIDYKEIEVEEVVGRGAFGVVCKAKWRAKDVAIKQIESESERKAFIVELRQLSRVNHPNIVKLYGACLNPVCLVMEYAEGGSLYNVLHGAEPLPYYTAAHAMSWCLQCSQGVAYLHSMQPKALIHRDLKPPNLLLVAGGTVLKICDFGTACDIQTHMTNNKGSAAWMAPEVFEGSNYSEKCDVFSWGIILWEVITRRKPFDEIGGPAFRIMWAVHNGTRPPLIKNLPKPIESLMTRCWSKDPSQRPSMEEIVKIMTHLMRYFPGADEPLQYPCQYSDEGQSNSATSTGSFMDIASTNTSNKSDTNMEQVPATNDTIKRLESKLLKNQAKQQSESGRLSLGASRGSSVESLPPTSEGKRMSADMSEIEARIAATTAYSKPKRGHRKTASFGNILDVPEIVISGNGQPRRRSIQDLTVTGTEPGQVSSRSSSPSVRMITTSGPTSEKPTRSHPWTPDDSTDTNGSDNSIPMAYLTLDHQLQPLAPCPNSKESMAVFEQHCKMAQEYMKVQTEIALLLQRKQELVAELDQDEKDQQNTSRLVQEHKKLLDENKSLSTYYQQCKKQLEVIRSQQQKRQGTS

[9] = biological target: Mitogen-activated protein kinase 8 (Homo sapiens) (UniProt P45983); experiment: Inhibition of human JNK1 at 100 nM
Sequence of Mitogen-activated protein kinase 8 (Homo sapiens) (P45983 whole entry): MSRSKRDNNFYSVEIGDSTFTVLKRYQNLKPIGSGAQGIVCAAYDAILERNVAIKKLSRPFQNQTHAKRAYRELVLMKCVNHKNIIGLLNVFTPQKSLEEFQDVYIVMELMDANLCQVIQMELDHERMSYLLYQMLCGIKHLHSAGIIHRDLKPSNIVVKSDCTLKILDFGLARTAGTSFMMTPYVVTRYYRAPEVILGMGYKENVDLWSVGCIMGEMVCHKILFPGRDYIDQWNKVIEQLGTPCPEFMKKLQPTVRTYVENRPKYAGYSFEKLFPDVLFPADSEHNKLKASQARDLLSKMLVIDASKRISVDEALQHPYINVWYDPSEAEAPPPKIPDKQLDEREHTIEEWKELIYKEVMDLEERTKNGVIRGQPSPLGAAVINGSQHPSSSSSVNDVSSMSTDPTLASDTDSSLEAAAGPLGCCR

Homo sapiens = organism: Homo sapiens; settings: at 100 nM
Description: Inhibition of human PKA at 100 nM

[10] = biological target: MAP kinase-interacting serine/threonine-protein kinase 1 (Homo sapiens) (UniProt Q9BUB5); experiment: Inhibition of human MNK1 at 100 nM
[11] = biological target: CDK2/Cyclin A2 (Homo sapiens) (UniProt P24941+P20248); experiment: Inhibition of human CDK2/Cyclin A at 100 nM; assay type: protein-complex assay
[12] = biological target: Mitogen-activated protein kinase kinase kinase 11 (Homo sapiens) (UniProt Q16584); experiment: Inhibition of human MLK3 at 100 nM
[13] = biological target: Ribosomal protein S6 kinase beta-1 (Homo sapiens) (UniProt P23443); experiment: Inhibition of human S6K1 at 100 nM
[14] = biological target: Serine/threonine-protein kinase Nek6 (Homo sapiens) (UniProt Q9HC98); experiment: Inhibition of human NEK6 at 100 nM
Sequence of Serine/threonine-protein kinase Nek6 (Homo sapiens) (Q9HC98 whole entry): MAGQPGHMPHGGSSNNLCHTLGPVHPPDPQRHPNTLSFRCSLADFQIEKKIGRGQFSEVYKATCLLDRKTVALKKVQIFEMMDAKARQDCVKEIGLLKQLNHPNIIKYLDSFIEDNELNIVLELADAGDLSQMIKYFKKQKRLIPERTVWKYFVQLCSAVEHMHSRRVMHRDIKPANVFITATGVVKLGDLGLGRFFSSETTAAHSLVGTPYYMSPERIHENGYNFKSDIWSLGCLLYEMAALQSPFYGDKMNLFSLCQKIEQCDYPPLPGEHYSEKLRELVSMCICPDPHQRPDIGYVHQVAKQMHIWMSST

[15] = biological target: Calcium/calmodulin-dependent protein kinase kinase 2 (Homo sapiens) (UniProt Q96RR4); experiment: Inhibition of human CAMKKb at 100 nM
Sequence of Calcium/calmodulin-dependent protein kinase kinase 2 (Homo sapiens) (Q96RR4 2-588 limits assumed): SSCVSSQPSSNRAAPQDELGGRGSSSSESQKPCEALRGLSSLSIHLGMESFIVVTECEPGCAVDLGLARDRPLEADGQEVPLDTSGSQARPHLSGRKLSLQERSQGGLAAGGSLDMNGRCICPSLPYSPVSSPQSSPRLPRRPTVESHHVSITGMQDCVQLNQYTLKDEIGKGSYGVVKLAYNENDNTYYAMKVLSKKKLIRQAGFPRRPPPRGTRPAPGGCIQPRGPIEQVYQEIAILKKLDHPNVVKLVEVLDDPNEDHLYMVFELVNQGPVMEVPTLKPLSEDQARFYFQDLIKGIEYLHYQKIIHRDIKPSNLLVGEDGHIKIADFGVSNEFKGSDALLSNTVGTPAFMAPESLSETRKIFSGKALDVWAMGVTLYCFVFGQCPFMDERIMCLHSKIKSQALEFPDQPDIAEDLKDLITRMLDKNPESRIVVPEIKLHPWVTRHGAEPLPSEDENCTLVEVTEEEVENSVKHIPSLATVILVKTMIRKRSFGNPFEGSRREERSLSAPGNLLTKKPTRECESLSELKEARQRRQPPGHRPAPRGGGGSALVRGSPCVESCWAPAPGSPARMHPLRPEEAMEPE

[16] = biological target: Ribosomal protein S6 kinase alpha-3 (Homo sapiens) (UniProt P51812); experiment: Inhibition of human RSK2 at 100 nM
[17] = biological target: Glycogen synthase kinase-3 beta (Homo sapiens) (UniProt P49841); experiment: Inhibition of human GSK3beta at 100 nM
Sequence of Glycogen synthase kinase-3 beta (Homo sapiens) (P49841 whole entry, looked up): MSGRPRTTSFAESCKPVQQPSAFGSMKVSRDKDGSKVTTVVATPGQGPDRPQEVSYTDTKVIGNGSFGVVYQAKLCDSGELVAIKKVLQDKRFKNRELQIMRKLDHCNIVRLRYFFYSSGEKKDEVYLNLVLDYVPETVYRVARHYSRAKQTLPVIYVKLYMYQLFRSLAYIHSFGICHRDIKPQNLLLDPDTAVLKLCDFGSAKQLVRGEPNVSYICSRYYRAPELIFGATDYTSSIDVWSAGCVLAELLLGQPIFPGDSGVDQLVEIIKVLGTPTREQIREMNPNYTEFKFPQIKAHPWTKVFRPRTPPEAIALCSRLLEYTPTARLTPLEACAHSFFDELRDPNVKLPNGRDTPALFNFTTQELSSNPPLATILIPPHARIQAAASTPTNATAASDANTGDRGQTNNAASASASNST

[18] = biological target: Tyrosine-protein kinase BTK (Homo sapiens) (UniProt Q06187); experiment: Inhibition of human BTK at 100 nM
[19] = biological target: Mitogen-activated protein kinase 14 (Homo sapiens) (UniProt Q16539); experiment: Inhibition of human p38a MAPK at 100 nM
[20] = biological target: Mitogen-activated protein kinase 3 (Homo sapiens) (UniProt P27361); experiment: Inhibition of human ERK1 at 100 nM
[21] = biological target: Fibroblast growth factor receptor 1 (Homo sapiens) (UniProt P11362); experiment: Inhibition of human FGFR1 at 100 nM
[22] = biological target: Dual specificity tyrosine-phosphorylation-regulated kinase 1A (Homo sapiens) (UniProt Q13627); experiment: Inhibition of human DYRK1A at 100 nM
[23] = biological target: Ribosomal protein S6 kinase alpha-5 (Homo sapiens) (UniProt O75582); experiment: Inhibition of human MSK1 at 100 nM
[24] = biological target: Insulin receptor-related protein (Homo sapiens) (UniProt P14616); experiment: Inhibition of human IRR at 100 nM
[25] = biological target: Serine/threonine-protein kinase Nek2 (Homo sapiens) (UniProt P51955); experiment: Inhibition of human NEK2a at 100 nM
[26] = biological target: Mitogen-activated protein kinase kinase kinase kinase 2 (Homo sapiens) (UniProt Q12851); experiment: Inhibition of human GCK at 100 nM
Plasmodium falciparum = experiment: Antimalarial activity against Plasmodium falciparum after 48 hrs by microbeta scintillation counting-based [3H]-hypoxanthine incorporation assay; assay type: functional, organism-based
[27] = biological target: SRSF protein kinase 1 (Homo sapiens) (UniProt Q96SB4); experiment: Inhibition of human SRPK1 at 100 nM
[28] = biological target: Tyrosine-protein kinase JAK2 (Homo sapiens) (UniProt O60674); experiment: Inhibition of human JAK2 at 100 nM
[29] = biological target: Misshapen-like kinase 1 (Homo sapiens) (UniProt Q8N4C8); experiment: Inhibition of human MINK1 at 100 nM
[30] = Kinetic solubility of the compound
[31] = biological target: Calcium/calmodulin-dependent protein kinase type 1 (Homo sapiens) (UniProt Q14012); experiment: Inhibition of human CAMK1 at 100 nM
[32] = biological target: Tyrosine-protein kinase Yes (Homo sapiens) (UniProt P07947); experiment: Inhibition of human YES1 at 100 nM
[33] = biological target: Phosphorylase kinase (Homo sapiens) (UniProt P15735+P46020+P46019+Q93100+Q16816); experiment: Inhibition of human PHK at 100 nM; assay type: protein-complex assay
[34] = biological target: Tyrosine-protein kinase SYK (Homo sapiens) (UniProt P43405); experiment: Inhibition of human SYK at 100 nM
[35] = biological target: NUAK family SNF1-like kinase 1 (Homo sapiens) (UniProt O60285); experiment: Inhibition of human NUAK1 at 100 nM
[36] = biological target: Protein kinase C zeta type (Homo sapiens) (UniProt Q05513); experiment: Inhibition of human PKCzeta at 100 nM
[37] = biological target: Vascular endothelial growth factor receptor 2 (Homo sapiens) (UniProt P35968); experiment: Inhibition of human VEGFR at 100 nM
[38] = biological target: Rho-associated protein kinase 2 (Homo sapiens) (UniProt O75116); experiment: Inhibition of human ROCK2 at 100 nM
[39] = Lipophilicity, log D of the compound at pH 7.4; settings: buffer
[40] = biological target: Serine/threonine-protein kinase 3 (Homo sapiens) (UniProt Q13188); experiment: Inhibition of human MST2 at 100 nM
Sequence of Serine/threonine-protein kinase 3 (Homo sapiens) (Q13188 whole entry): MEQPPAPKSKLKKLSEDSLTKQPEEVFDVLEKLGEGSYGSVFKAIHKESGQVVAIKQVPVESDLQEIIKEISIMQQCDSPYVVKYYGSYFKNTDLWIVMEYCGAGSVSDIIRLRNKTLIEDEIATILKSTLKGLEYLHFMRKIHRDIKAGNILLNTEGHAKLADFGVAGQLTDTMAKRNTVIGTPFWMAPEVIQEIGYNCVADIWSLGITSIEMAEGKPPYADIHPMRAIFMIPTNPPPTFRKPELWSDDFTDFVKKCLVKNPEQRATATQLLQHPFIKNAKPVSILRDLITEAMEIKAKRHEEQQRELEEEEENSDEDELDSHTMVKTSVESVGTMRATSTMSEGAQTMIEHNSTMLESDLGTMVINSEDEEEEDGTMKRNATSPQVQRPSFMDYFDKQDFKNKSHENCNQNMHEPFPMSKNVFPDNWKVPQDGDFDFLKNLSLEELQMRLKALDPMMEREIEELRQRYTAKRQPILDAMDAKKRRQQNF

[41] = biological target: Mitogen-activated protein kinase kinase kinase 9 (Homo sapiens) (UniProt P80192); experiment: Inhibition of human MLK1 at 100 nM
[42] = biological target: 3-phosphoinositide-dependent protein kinase 1 (Homo sapiens) (UniProt O15530); experiment: Inhibition of human PDK1 at 100 nM
[43] = biological target: Eukaryotic elongation factor 2 kinase (Homo sapiens) (UniProt O00418); experiment: Inhibition of human EF2K at 100 nM
Sequence of Eukaryotic elongation factor 2 kinase (Homo sapiens) (O00418 whole entry): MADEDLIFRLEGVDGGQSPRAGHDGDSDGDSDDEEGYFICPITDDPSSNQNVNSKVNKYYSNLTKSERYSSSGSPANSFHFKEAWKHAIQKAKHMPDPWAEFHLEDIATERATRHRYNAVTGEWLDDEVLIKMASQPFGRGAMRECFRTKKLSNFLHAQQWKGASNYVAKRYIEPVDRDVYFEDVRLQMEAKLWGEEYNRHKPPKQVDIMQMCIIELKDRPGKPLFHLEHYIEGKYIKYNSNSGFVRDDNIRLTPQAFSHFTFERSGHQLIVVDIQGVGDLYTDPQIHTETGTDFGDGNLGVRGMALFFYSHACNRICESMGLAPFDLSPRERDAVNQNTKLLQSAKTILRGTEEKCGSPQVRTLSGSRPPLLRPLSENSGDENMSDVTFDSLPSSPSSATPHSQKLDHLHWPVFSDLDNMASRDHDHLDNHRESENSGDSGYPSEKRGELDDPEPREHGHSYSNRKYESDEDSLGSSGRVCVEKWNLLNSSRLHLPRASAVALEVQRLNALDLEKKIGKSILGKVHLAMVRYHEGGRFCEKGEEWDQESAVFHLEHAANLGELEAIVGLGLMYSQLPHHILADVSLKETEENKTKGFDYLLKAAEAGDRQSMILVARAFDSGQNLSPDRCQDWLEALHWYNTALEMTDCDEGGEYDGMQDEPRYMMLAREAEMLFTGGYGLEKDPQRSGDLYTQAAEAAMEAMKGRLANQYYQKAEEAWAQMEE

[44] = biological target: Dual specificity protein kinase TTK (Homo sapiens) (UniProt P33981); experiment: Inhibition of human TTK at 100 nM
[45] = biological target: Interleukin-1 receptor-associated kinase 4 (Homo sapiens) (UniProt Q9NWZ3); experiment: Inhibition of human IRAK4 at 100 nM

Question: What does the source list for `CN1CCC(c2nc(-c3cccc(S(C)(=O)=O)c3)c(-c3ccnc(Nc4ccc(N5CCNCC5)cc4)n3)s2)CC1`?
Answer: inhibition [1]: < 70%; inhibition [2]: < 70%; inhibition [3]: < 70%; inhibition [4]: < 70%; inhibition [5]: < 70%; inhibition [6]: < 70%; inhibition [7]: > 90%; inhibition [8]: < 70%; inhibition [9]: < 70%; inhibition (Homo sapiens): < 70%; inhibition [10]: < 70%; inhibition [11]: < 70%; inhibition [12]: < 70%; inhibition [13]: < 70%; inhibition [14]: < 70%; inhibition [15]: < 70%; inhibition [16]: < 70%; inhibition [17]: < 70%; inhibition [18]: < 70%; inhibition [19]: < 70%; inhibition [20]: < 70%; inhibition [21]: < 70%; inhibition [22]: < 70%; inhibition [23]: < 70%; inhibition [24]: < 70%; inhibition [25]: < 70%; inhibition [26]: < 70%; pEC50 (Plasmodium falciparum): 6.98; inhibition [27]: < 70%; inhibition [28]: < 70%; inhibition [29]: < 70%; solubility kinetic [30]: 208 µM (≈ 123 µg/mL); inhibition [31]: < 70%; inhibition [32]: < 70%; inhibition [33]: < 70%; inhibition [34]: < 70%; inhibition [35]: < 70%; inhibition [36]: < 70%; inhibition [37]: < 70%; inhibition [38]: < 70%; logD [39]: 0.3; inhibition [40]: < 70%; inhibition [41]: < 70%; inhibition [42]: < 70%; inhibition [43]: < 70%; inhibition [44]: < 70%; inhibition [45]: < 70%

Question: With `CN1CCC(c2nc(-c3ccc(F)c(NS(C)(=O)=O)c3)c(-c3ccnc(NCC4CC4)n3)s2)CC1` as the compound, how does the inhibition [1] read?
Answer: < 70%

Question: What about the inhibition [2] of the same compound?
Answer: < 70%

Question: And the inhibition [3]?
Answer: < 70%

Question: What about the inhibition [4] of the same compound?
Answer: < 70%

Question: And the inhibition [5]?
Answer: < 70%

Question: And the inhibition [6]?
Answer: < 70%

Question: What about the inhibition [7] of the same compound?
Answer: < 70%

Question: What about the inhibition [8] of the same compound?
Answer: < 70%

Question: What about the inhibition [9] of the same compound?
Answer: < 70%

Question: And the inhibition (Homo sapiens)?
Answer: < 70%

Question: What about the inhibition [10] of the same compound?
Answer: < 70%

Question: And the inhibition [11]?
Answer: < 70%

Question: What about the inhibition [12] of the same compound?
Answer: < 70%

Question: And the inhibition [13]?
Answer: < 70%

Question: And the inhibition [14]?
Answer: < 70%

Question: What about the inhibition [15] of the same compound?
Answer: < 70%

Question: What about the inhibition [16] of the same compound?
Answer: < 70%

Question: What about the inhibition [17] of the same compound?
Answer: < 70%

Question: And the inhibition [18]?
Answer: < 70%

Question: What about the inhibition [19] of the same compound?
Answer: < 70%

Question: What about the inhibition [20] of the same compound?
Answer: < 70%

Question: And the inhibition [21]?
Answer: < 70%

Question: And the inhibition [22]?
Answer: < 70%

Question: And the inhibition [23]?
Answer: < 70%

Question: What about the inhibition [24] of the same compound?
Answer: < 70%

Question: What about the inhibition [25] of the same compound?
Answer: < 70%

Question: And the inhibition [26]?
Answer: < 70%

Question: What about the pEC50 (Plasmodium falciparum) of the same compound?
Answer: 6.95

Question: And the inhibition [27]?
Answer: < 70%

Question: What about the inhibition [28] of the same compound?
Answer: < 70%

Question: What about the inhibition [29] of the same compound?
Answer: < 70%

Question: What about the solubility kinetic [30] of the same compound?
Answer: 190 µM (≈ 98.2 µg/mL)

Question: What about the inhibition [31] of the same compound?
Answer: < 70%

Question: And the inhibition [32]?
Answer: < 70%

Question: And the inhibition [33]?
Answer: < 70%

Question: What about the inhibition [34] of the same compound?
Answer: < 70%

Question: And the inhibition [35]?
Answer: < 70%

Question: And the inhibition [36]?
Answer: < 70%

Question: What about the inhibition [37] of the same compound?
Answer: < 70%

Question: And the inhibition [38]?
Answer: < 70%

Question: And the logD [39]?
Answer: 1.9

Question: What about the inhibition [40] of the same compound?
Answer: < 70%

Question: What about the inhibition [41] of the same compound?
Answer: < 70%

Question: And the inhibition [42]?
Answer: < 70%

Question: And the inhibition [43]?
Answer: < 70%

Question: And the inhibition [44]?
Answer: < 70%

Question: What about the inhibition [45] of the same compound?
Answer: < 70%
